The values below come from patent EP0678293A2, “Composition containing pyridoxine ester, process for the preparation and use thereof” (F. HOFFMANN-LA ROCHE AG, priority 1994, dated 1995).

The conditions of series [1]: cited from earlier work; for Löslichkeit in Fetten: Kummerow, J.Am Oil Chem. Soc. 33 1956, 116.
For series [2] the following is noted: direct use in ointments, creams and other skin preparations; no test described; cited from earlier work.
The nature of series [3]: Solubility of pyridoxine tripropionate in vegetable oil / lipophilic phases.
Source text: 50 Gew% Pyridoxintripropionat werden vorgelegt und in 50 Gew% Pflanzenöl unter starkem Rühren gelöst.

`Cc1ncc(CO)c(CO)c1O.Cl` [Pyridoxin-hydrochlorid]: the “Löslichkeit in unpolaren Flüssigkeiten” value in series [1] (in unpolaren Flüssigkeiten, background statement) is “praktisch unlöslich”.

Regarding `CC(=O)OCc1cnc(C)c(OC(C)=O)c1COC(C)=O` [Pyridoxintriacetat], the “Löslichkeit in Fetten” value in series [1] (Sakuragi) was “beinahe unlöslich”.

`CCCCCCCCCCCCCCCC(=O)OCc1cnc(C)c(OC(=O)CCCCCCCCCCCCCCC)c1COC(=O)CCCCCCCCCCCCCCC` [Pyridoxintripalmitat]: the “Löslichkeit in Olivenöl” value in series [1] (bei 3 °C in Olivenöl, Sakuragi, Kummerow 1956) is on record as 0,1%.

For `CCC(=O)OCc1cnc(C)c(OC(=O)CC)c1COC(=O)CC` [Pyridoxintripropionat], the “Löslichkeit in Fetten” value in series [1] (Sakuragi) was “beinahe unlöslich”. The “Vitamin B₆ Wirksamkeit” value in series [2] is recorded as “volle”. The “Lösung in Pflanzenöl” value in series [3] (50 Gew% Pyridoxintripropionat in 50 Gew% Pflanzenöl, dissolved with vigorous stirring) is on record as “homogene Lösung”. The “löslich in Pflanzenöl” value in series [3] (in Pflanzenöl) was no more than 50 Gew.%.

Turning to Pyridoxinoctanoat, in series [1] (in Pflanzenölen, Sakuragi, Kummerow 1956), the “Löslichkeit in Pflanzenölen” value is no more than 1%.
